Test results from PubChem BioAssay (NCI).
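Following 48 hours of exposure in 96-well plates, responses at five concentrations were used to interpolate endpoints linearly. The concentration for full growth arrest is given as TGI.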

Legend:
Assay in all cases: NCI-60 cell line screen, 48 h
HOP-62 NSCLC = test system: HOP-62 NSCLC
A498 renal = test system: A498 renal
HCT-15 colon = test system: HCT-15 colon
SF-295 CNS = test system: SF-295 CNS
HCT-116 colon = test system: HCT-116 colon
SF-268 CNS = test system: SF-268 CNS
OVCAR-8 ovarian = test system: OVCAR-8 ovarian
NCI-H226 lung = test system: NCI-H226 lung
RPMI-8226 leukemia = test system: RPMI-8226 leukemia
MDA-MB-435 = test system: MDA-MB-435
MALME-3M melanoma = test system: MALME-3M melanoma
SNB-19 CNS = test system: SNB-19 CNS
MOLT-4 leukemia = test system: MOLT-4 leukemia
NCI-H23 lung = test system: NCI-H23 lung
MDA-N = test system: MDA-N
UACC-62 melanoma = test system: UACC-62 melanoma
MCF7 breast = test system: MCF7 breast
SF-539 CNS = test system: SF-539 CNS
NCI-H522 lung = test system: NCI-H522 lung
DU-145 prostate = test system: DU-145 prostate
KM12 colon = test system: KM12 colon
HT29 colon = test system: HT29 colon
HCC-2998 colon = test system: HCC-2998 colon
UO-31 renal = test system: UO-31 renal
SK-MEL-5 melanoma = test system: SK-MEL-5 melanoma
HS 578T breast = test system: HS 578T breast
COLO 205 colon = test system: COLO 205 colon
U251 CNS = test system: U251 CNS
SW-620 colon = test system: SW-620 colon
BT-549 breast = test system: BT-549 breast
PC-3 prostate = test system: PC-3 prostate
SN12C renal = test system: SN12C renal
T-47D breast = test system: T-47D breast
OVCAR-5 ovarian = test system: OVCAR-5 ovarian
OVCAR-3 ovarian = test system: OVCAR-3 ovarian
TK-10 renal = test system: TK-10 renal
SK-MEL-2 melanoma = test system: SK-MEL-2 melanoma
NCI/ADR-RES ovarian = test system: NCI/ADR-RES ovarian
SK-OV-3 ovarian = test system: SK-OV-3 ovarian
HOP-92 NSCLC = test system: HOP-92 NSCLC
UACC-257 melanoma = test system: UACC-257 melanoma
HL-60(TB) leukemia = test system: HL-60(TB) leukemia
SK-MEL-28 melanoma = test system: SK-MEL-28 melanoma
EKVX NSCLC = test system: EKVX NSCLC
RXF 393 renal = test system: RXF 393 renal
OVCAR-4 ovarian = test system: OVCAR-4 ovarian
SNB-75 CNS = test system: SNB-75 CNS
IGROV1 ovarian = test system: IGROV1 ovarian
A549 NSCLC = test system: A549 NSCLC
M14 melanoma = test system: M14 melanoma
ACHN renal = test system: ACHN renal
LOX IMVI melanoma = test system: LOX IMVI melanoma
CAKI-1 renal = test system: CAKI-1 renal
MDA-MB-231 breast = test system: MDA-MB-231 breast
786-0 renal = test system: 786-0 renal
NCI-H460 lung = test system: NCI-H460 lung
SR leukemia = test system: SR leukemia
CCRF-CEM leukemia = test system: CCRF-CEM leukemia
K-562 leukemia = test system: K-562 leukemia

## COc1ccc(C(OCC2OC(n3cc(C)c(=O)[nH]c3=O)CC2n2cc(Cn3cc(Cl)c(=O)[nH]c3=O)nn2)(c2ccccc2)c2ccccc2)cc1 (centres undefined)
HOP-62 NSCLC
  TGI: > 100 µM
A498 renal
  TGI: > 100 µM
HCT-15 colon
  TGI: > 100 µM
SF-295 CNS
  TGI: > 100 µM
HCT-116 colon
  TGI: > 100 µM
SF-268 CNS
  TGI: > 100 µM
OVCAR-8 ovarian
  TGI: > 100 µM
NCI-H226 lung
  TGI: > 100 µM
RPMI-8226 leukemia
  TGI: > 100 µM
MDA-MB-435
  TGI: > 100 µM
MALME-3M melanoma
  TGI: > 100 µM
SNB-19 CNS
  TGI: > 100 µM
MOLT-4 leukemia
  TGI: > 100 µM
NCI-H23 lung
  TGI: > 100 µM
MDA-N
  TGI: > 100 µM
UACC-62 melanoma
  TGI: > 100 µM
MCF7 breast
  TGI: > 100 µM
SF-539 CNS
  TGI: > 100 µM
NCI-H522 lung
  TGI: > 100 µM
DU-145 prostate
  TGI: > 100 µM
KM12 colon
  TGI: > 100 µM
HT29 colon
  TGI: > 100 µM
HCC-2998 colon
  TGI: > 100 µM
UO-31 renal
  TGI: > 100 µM
SK-MEL-5 melanoma
  TGI: > 100 µM
HS 578T breast
  TGI: > 100 µM
COLO 205 colon
  TGI: > 100 µM
U251 CNS
  TGI: > 100 µM
SW-620 colon
  TGI: > 100 µM
BT-549 breast
  TGI: > 100 µM
PC-3 prostate
  TGI: > 100 µM
SN12C renal
  TGI: > 100 µM
T-47D breast
  TGI: > 100 µM
OVCAR-5 ovarian
  TGI: > 100 µM
OVCAR-3 ovarian
  TGI: > 100 µM
TK-10 renal
  TGI: > 100 µM
SK-MEL-2 melanoma
  TGI: > 100 µM
NCI/ADR-RES ovarian
  TGI: > 100 µM
SK-OV-3 ovarian
  TGI: > 100 µM
HOP-92 NSCLC
  TGI: > 100 µM
UACC-257 melanoma
  TGI: > 100 µM
HL-60(TB) leukemia
  TGI: 6.99 µM
SK-MEL-28 melanoma
  TGI: > 100 µM
EKVX NSCLC
  TGI: > 100 µM
RXF 393 renal
  TGI: > 100 µM
OVCAR-4 ovarian
  TGI: > 100 µM
SNB-75 CNS
  TGI: > 100 µM
IGROV1 ovarian
  TGI: > 100 µM
A549 NSCLC
  TGI: > 100 µM
M14 melanoma
  TGI: > 100 µM
ACHN renal
  TGI: > 100 µM
LOX IMVI melanoma
  TGI: > 100 µM
CAKI-1 renal
  TGI: > 100 µM
MDA-MB-231 breast
  TGI: > 100 µM
786-0 renal
  TGI: > 100 µM

## O=C1C(c2c(O)[nH]c3ccc(F)cc23)=Nc2ccccc21
HOP-62 NSCLC
  TGI: > 100 µM
HCT-15 colon
  TGI: > 100 µM
SF-295 CNS
  TGI: > 100 µM
HCT-116 colon
  TGI: > 100 µM
SF-268 CNS
  TGI: > 100 µM
OVCAR-8 ovarian
  TGI: 43.8 µM
NCI-H226 lung
  TGI: > 100 µM
RPMI-8226 leukemia
  TGI: > 100 µM
MDA-MB-435
  TGI: > 100 µM
MALME-3M melanoma
  TGI: > 100 µM
NCI-H460 lung
  TGI: > 100 µM
SNB-19 CNS
  TGI: > 100 µM
MOLT-4 leukemia
  TGI: 81.5 µM
NCI-H23 lung
  TGI: > 100 µM
MDA-N
  TGI: > 100 µM
UACC-62 melanoma
  TGI: > 100 µM
MCF7 breast
  TGI: > 100 µM
NCI-H522 lung
  TGI: > 100 µM
DU-145 prostate
  TGI: > 100 µM
KM12 colon
  TGI: > 100 µM
HT29 colon
  TGI: > 100 µM
HCC-2998 colon
  TGI: > 100 µM
UO-31 renal
  TGI: > 100 µM
SK-MEL-5 melanoma
  TGI: > 100 µM
HS 578T breast
  TGI: > 100 µM
COLO 205 colon
  TGI: > 100 µM
U251 CNS
  TGI: 42.7 µM
SW-620 colon
  TGI: > 100 µM
BT-549 breast
  TGI: > 100 µM
PC-3 prostate
  TGI: > 100 µM
SN12C renal
  TGI: > 100 µM
SR leukemia
  TGI: > 100 µM
OVCAR-5 ovarian
  TGI: > 100 µM
OVCAR-3 ovarian
  TGI: > 100 µM
TK-10 renal
  TGI: > 100 µM
SK-MEL-2 melanoma
  TGI: > 100 µM
NCI/ADR-RES ovarian
  TGI: > 100 µM
SK-OV-3 ovarian
  TGI: 24.9 µM
HOP-92 NSCLC
  TGI: 65.6 µM
UACC-257 melanoma
  TGI: > 100 µM
SK-MEL-28 melanoma
  TGI: > 100 µM
EKVX NSCLC
  TGI: > 100 µM
RXF 393 renal
  TGI: 9.77 µM
SNB-75 CNS
  TGI: 15.1 µM
CCRF-CEM leukemia
  TGI: > 100 µM
IGROV1 ovarian
  TGI: > 100 µM
A549 NSCLC
  TGI: > 100 µM
M14 melanoma
  TGI: > 100 µM
K-562 leukemia
  TGI: > 100 µM
ACHN renal
  TGI: > 100 µM
LOX IMVI melanoma
  TGI: > 100 µM
CAKI-1 renal
  TGI: > 100 µM
MDA-MB-231 breast
  TGI: 54.6 µM
786-0 renal
  TGI: > 100 µM
